Columns and labels:
Test in all cases: MIC assay (NCCLS broth microdilution)
Format in all cases: cell-based
Branhamella catarrhalis = settings: species 6 = Branhamella catarrhalis; 18-24 hr at 35° C., Mueller-Hinton broth
Description: (§1) The minimum inhibitory concentration (MIC) assay is performed according to the Performance Standards for Antimicrobial Susceptibility Testing, 1998, vol. M 100-S8, Eighth Informational Supplement, NCCLS, 940 West Valley Road, Suite 1400, Wayne, Pa. 19087.
(§2) Polymers to be tested were dissolved in 0.85% saline to a final concentration of either 830 or 1000 μg/ml, the pH was adjusted to 7.0 and the solution was filter-sterilized through a 0.22 μm filter. Two-fold serial dilutions of polymer were prepared in Mueller-Hinton broth with cations aliquotted into 96-well microtiter plates. The plates were then inoculated with […] of target organism, and incubated 18-24 hr at 35° C. The optical density (OD) was then read at 590 nm, and microorganism growth was scored (OD >0.1 is considered to be growth; OD <0.1 is considered growth inhibition). The MIC value was defined as the lowest concentration of compound which inhibits growth.

E. Faecium = settings: species 2 = E. Faecium; 18-24 hr at 35° C., Mueller-Hinton broth
Description: as §1, §2

E. coli = settings: species 1 = E. coli; 18-24 hr at 35° C., Mueller-Hinton broth
Description: as §1, §2

N. meningitidis = settings: species 5 = N. meningitidis; 18-24 hr at 35° C., Mueller-Hinton broth
Description: as §1, §2

S. pneumoniae = settings: species 4 = S. pneumoniae; 18-24 hr at 35° C., Mueller-Hinton broth
Description: as §1, §2

S. sanguis = settings: species 3 = S. sanguis; 18-24 hr at 35° C., Mueller-Hinton broth
Description: as §1, §2

For CCCCCCCCCCCCOS(=O)(=O)[O-].[Na+] [sodium dodecyl sulfate], the “minimum inhibitory concentration (MIC)” value (Branhamella catarrhalis) was 9, the “minimum inhibitory concentration (MIC)” value (E. Faecium) was over 83 and the “minimum inhibitory concentration (MIC)” value (E. coli) was over 83. The “minimum inhibitory concentration (MIC)” value (N. meningitidis) was 28, the “minimum inhibitory concentration (MIC)” value (S. pneumoniae) was 28 and the “minimum inhibitory concentration (MIC)” value (S. sanguis) was 28.

Source: patent US6730295B2, “Anionic polymers as species specific antibacterial agents” (Genzyme Corporation, priority 2000, dated 2004)
